In brackets after ≈: the same amount, converted by molar mass.
Experiments:
Assay type in all cases: functional
Nakaseomyces glabratus [1] = assay: Antifungal activity against 29 days cultured Candida glabrata isolated from neutropenic subject with AML or MDS pharynx after 48 days of prophylaxis by broth microdilution method
Nakaseomyces glabratus [2] = assay: Antifungal activity against 19 days cultured Candida glabrata isolated from HSCT recipient with acute or chronic GVHD mouth after 17 days of prophylaxis by broth microdilution method
Pichia kudriavzevii [3] = assay: Antifungal activity against 13 days cultured Candida krusei isolated from invasive fungal infected subject blood after 12 days of prophylaxis by broth microdilution method
Pichia kudriavzevii [4] = assay: Antifungal activity against 14 days cultured Candida krusei isolated from neutropenic subject with AML or MDS stool after 12 days of prophylaxis by broth microdilution method
Nakaseomyces glabratus [5] = assay: Antifungal activity against 1 day cultured Candida glabrata isolated from neutropenic subject with AML or MDS stool receiving antifungal therapy for 25 days after 3 days of prophylaxis by broth microdilution method
Candida tropicalis = assay: Antifungal activity against -3 days cultured Candida tropicalis isolated from neutropenic subject with AML or MDS stool receiving antifungal therapy for 45 days after 24 days of prophylaxis by broth microdilution method
Nakaseomyces glabratus [6] = assay: Antifungal activity against 15 days cultured Candida glabrata isolated from HSCT recipient with acute or chronic GVHD mouth receiving antifungal therapy for 168 days after 113 days of prophylaxis by broth microdilution method
Nakaseomyces glabratus [7] = assay: Antifungal activity against 177 days cultured Candida glabrata isolated from HSCT recipient with acute or chronic GVHD mouth receiving antifungal therapy for 172 days after 114 days of prophylaxis by broth microdilution method
Pichia kudriavzevii [8] = assay: Antifungal activity against 1 day cultured Candida krusei isolated from neutropenic subject with AML or MDS pharynx receiving antifungal therapy for 19 days after 6 days of prophylaxis by broth microdilution method
Pichia kudriavzevii [9] = assay: Antifungal activity against 16 days cultured Candida krusei isolated from neutropenic subject with AML or MDS pharynx receiving antifungal therapy for 19 days after 6 days of prophylaxis by broth microdilution method
Candida albicans [10] = assay: Antifungal activity against Candida albicans isolated from HSCT recipients with acute or chronic GVHD receiving posaconazole assessed as maximum MIC by broth microdilution method
Pichia kudriavzevii [11] = assay: Antifungal activity against Candida krusei isolated from HSCT recipients with acute or chronic GVHD prior to initiation of posaconazole therapy assessed as maximum MIC by broth microdilution method
Nakaseomyces glabratus [12] = assay: Antifungal activity against Candida glabrata isolated from neutropenic subjects with AML or MDS receiving posaconazole by broth microdilution method
Candida albicans [13] = assay: Antifungal activity against Candida albicans isolated from neutropenic subjects with AML or MDS prior to initiation of posaconazole therapy assessed as maximum MIC by broth microdilution method
Nakaseomyces glabratus [14] = assay: Antifungal activity against Candida glabrata isolated from neutropenic subjects with AML or MDS prior to initiation of posaconazole therapy assessed as maximum MIC by broth microdilution method
Pichia kudriavzevii [15] = assay: Antifungal activity against Candida krusei isolated from neutropenic subjects with AML or MDS prior to initiation of posaconazole therapy assessed as maximum MIC by broth microdilution method
Nakaseomyces glabratus [16] = assay: Antifungal activity against Candida glabrata isolated from HSCT recipients with acute or chronic GVHD prior to initiation of fluconazole therapy by broth microdilution method
Nakaseomyces glabratus [17] = assay: Antifungal activity against Candida glabrata isolated from HSCT recipients with acute or chronic GVHD receiving fluconazole by broth microdilution method
Pichia kudriavzevii [18] = assay: Antifungal activity against Candida krusei isolated from HSCT recipients with acute or chronic GVHD prior to initiation of fluconazole therapy assessed as maximum MIC by broth microdilution method
Pichia kudriavzevii [19] = assay: Antifungal activity against Candida krusei isolated from HSCT recipients with acute or chronic GVHD receiving fluconazole assessed as maximum MIC by broth microdilution method
Candida albicans [20] = assay: Antifungal activity against Candida albicans isolated from neutropenic subjects with AML or MDS prior to initiation of fluconazole therapy by broth microdilution method
Candida albicans [21] = assay: Antifungal activity against Candida albicans isolated from neutropenic subjects with AML or MDS prior to initiation of fluconazole therapy assessed as maximum MIC by broth microdilution method
Nakaseomyces glabratus [22] = assay: Antifungal activity against Candida glabrata isolated from neutropenic subjects with AML or MDS prior to initiation of fluconazole therapy by broth microdilution method
Nakaseomyces glabratus [23] = assay: Antifungal activity against 29 days cultured Candida glabrata isolated from neutropenic subject with AML or MDS stool after 48 days of prophylaxis by broth microdilution method
Candida albicans [24] = assay: Antifungal activity against Candida albicans isolated from HSCT recipient 301 with acute or chronic GVHD mouth after 114 days prophylaxis by broth microdilution method
Candida albicans [25] = assay: Antifungal activity against Candida albicans isolated from HSCT recipient 301 with acute or chronic GVHD mouth receiving antifungal drug after 114 days prophylaxis by broth microdilution method
Nakaseomyces glabratus [26] = assay: Antifungal activity against Candida glabrata isolated from neutropenic subject 1102 with AML or MDS stool receiving antifungal drug after 26 days prophylaxis by broth microdilution method; settings: 624 h
Nakaseomyces glabratus [27] = assay: Antifungal activity against Candida glabrata isolated from neutropenic subject 1318 with AML or MDS stool receiving antifungal drug after 36 days prophylaxis by broth microdilution method
Nakaseomyces glabratus [28] = assay: Antifungal activity against Candida glabrata isolated from HSCT recipient 474 with acute or chronic GVHD mouth after 124 days prophylaxis by broth microdilution method
Nakaseomyces glabratus [29] = assay: Antifungal activity against Candida glabrata isolated from HSCT recipient 975 with acute or chronic GVHD mouth after 112 days prophylaxis by broth microdilution method
Candida albicans [30] = assay: Antifungal activity against Candida albicans isolated from HSCT recipient 031 with acute or chronic GVHD mouth receiving antifungal drug after 109 days prophylaxis by broth microdilution method
Candida albicans [31] = assay: Antifungal activity against Candida albicans isolated from HSCT recipient 462 with acute or chronic GVHD mouth receiving antifungal drug after 112 days prophylaxis by broth microdilution method
Candida albicans [32] = assay: Antifungal activity against Candida albicans isolated from HSCT recipient 042 with acute or chronic GVHD mouth receiving antifungal drug after 112 days prophylaxis by broth microdilution method
Candida albicans [33] = assay: Antifungal activity against Candida albicans isolated from HSCT recipient 928 with acute or chronic GVHD mouth receiving antifungal drug after 112 days prophylaxis by broth microdilution method
Nakaseomyces glabratus [34] = assay: Antifungal activity against Candida glabrata isolated from neutropenic subject 1331 with AML or MDS pharynx after 21 days prophylaxis by broth microdilution method; settings: 504 h
Nakaseomyces glabratus [35] = assay: Antifungal activity against Candida glabrata isolated from HSCT recipient 002 with acute or chronic GVHD mouth after 116 days prophylaxis by broth microdilution method
Nakaseomyces glabratus [36] = assay: Antifungal activity against Candida glabrata isolated from HSCT recipient 002 with acute or chronic GVHD mouth receiving antifungal drug after 116 days prophylaxis by broth microdilution method
Nakaseomyces glabratus [37] = assay: Antifungal activity against Candida glabrata isolated from HSCT recipient 497 with acute or chronic GVHD mouth receiving antifungal drug after 114 days prophylaxis by broth microdilution method
Nakaseomyces glabratus [38] = assay: Antifungal activity against Candida glabrata isolated from HSCT recipient 807 with acute or chronic GVHD mouth receiving antifungal drug after 114 days prophylaxis by broth microdilution method

Work on `CC[C@@H]([C@H](C)O)n1ncn(-c2ccc(N3CCN(c4ccc(OC[C@@H]5CO[C@@](Cn6cncn6)(c6ccc(F)cc6F)C5)cc4)CC3)cc2)c1=O` [POSACONAZOLE] yielded an MIC (Nakaseomyces glabratus [1]) of 8 µg/mL (≈ 11.4 µM), an MIC (Nakaseomyces glabratus [2]) of 8 µg/mL (≈ 11.4 µM) and an MIC (Pichia kudriavzevii [3]) of 0.25 µg/mL (≈ 0.357 µM). It also gave an MIC (Pichia kudriavzevii [4]) of 0.125 µg/mL (≈ 0.178 µM), an MIC (Nakaseomyces glabratus [5]) of 4 µg/mL (≈ 5.71 µM) and an MIC (Candida tropicalis) of under 0.015 µg/mL. The MIC (Nakaseomyces glabratus [6]) was 2 µg/mL (≈ 2.85 µM), the MIC (Nakaseomyces glabratus [7]) was 1 µg/mL (≈ 1.43 µM) and the MIC (Pichia kudriavzevii [8]) was 0.06 µg/mL (≈ 0.0856 µM). It also gave an MIC (Pichia kudriavzevii [9]) of 0.25 µg/mL (≈ 0.357 µM), an MIC (Candida albicans [10]) of 0.25 µg/mL and an MIC (Pichia kudriavzevii [11]) of 0.5 µg/mL. It also gave an MIC50 (Nakaseomyces glabratus [12]) of 0.5 µg/mL (≈ 0.713 µM), an MIC90 (Nakaseomyces glabratus [12]) of 4 µg/mL (≈ 5.71 µM) and an MIC (Candida albicans [13]) of 0.06 µg/mL. The MIC (Nakaseomyces glabratus [14]) was 4 µg/mL, the MIC (Pichia kudriavzevii [15]) was 0.25 µg/mL and the MIC50 (Nakaseomyces glabratus [16]) was 1 µg/mL (≈ 1.43 µM). For the same molecule, the MIC90 (Nakaseomyces glabratus [16]) was 8 µg/mL (≈ 11.4 µM), the MIC50 (Nakaseomyces glabratus [17]) was 2 µg/mL (≈ 2.85 µM) and the MIC90 (Nakaseomyces glabratus [17]) was 8 µg/mL (≈ 11.4 µM). The MIC (Pichia kudriavzevii [18]) was 0.5 µg/mL, the MIC (Pichia kudriavzevii [19]) was 1 µg/mL and the MIC50 (Candida albicans [20]) was 0.015 µg/mL (≈ 0.0214 µM). The MIC90 (Candida albicans [20]) was 0.015 µg/mL (≈ 0.0214 µM), the MIC (Candida albicans [21]) was 0.06 µg/mL and the MIC50 (Nakaseomyces glabratus [22]) was 0.5 µg/mL (≈ 0.713 µM). The MIC90 (Nakaseomyces glabratus [22]) was 2 µg/mL (≈ 2.85 µM), the MIC (Nakaseomyces glabratus [23]) was 1 µg/mL (≈ 1.43 µM) and the MIC (Candida albicans [24]) was under 0.015 µg/mL. It also gave an MIC (Candida albicans [25]) of 0.03 µg/mL (≈ 0.0428 µM), an MIC (Nakaseomyces glabratus [26]) of over 8 µg/mL and an MIC (Nakaseomyces glabratus [27]) of 8 µg/mL (≈ 11.4 µM). For the same molecule, the MIC (Nakaseomyces glabratus [28]) was 0.25 µg/mL (≈ 0.357 µM), the MIC (Nakaseomyces glabratus [29]) was 0.25 µg/mL (≈ 0.357 µM) and the MIC (Candida albicans [30]) was under 0.015 µg/mL. The MIC (Candida albicans [31]) was 0.06 µg/mL (≈ 0.0856 µM), the MIC (Candida albicans [32]) was under 0.015 µg/mL and the MIC (Candida albicans [33]) was over 8 µg/mL. The MIC (Nakaseomyces glabratus [34]) was 2 µg/mL (≈ 2.85 µM), the MIC (Nakaseomyces glabratus [35]) was 0.5 µg/mL (≈ 0.713 µM) and the MIC (Nakaseomyces glabratus [36]) was 4 µg/mL (≈ 5.71 µM). It also gave an MIC (Nakaseomyces glabratus [37]) of 2 µg/mL (≈ 2.85 µM) and an MIC (Nakaseomyces glabratus [38]) of over 8 µg/mL.
